What was measured:
p38α-MK2 complex = system: p38α-MK2 complex; design: method as in PMID 29549113; conditions: cited from earlier work
MK2 [1] = system: MK2; design: method as in PMID 12147348, PMID 35691544; conditions: cited from earlier work
p-Hsp27 = experiment: Cellular washout assay, p-Hsp27 by western blot; format: cell-based; conditions: 1 h pretreatment, then LPS
Procedure: (§1) FIGURE 4 Targeting cellular MK2 signaling with irreversible inhibition by compound 11. (A and B) RT‐PCR analysis of IL‐1β, TNF‐α, and IL‐6 expression in Lipopolysaccharides (LPS)‐stimulated THP‐1 (A) and RAW264.7 (B) Cells, with pre‐treatment of compound 11 for 3 h followed by LPS (3 h) stimulation. (C) The inhibitory effects of compound 11 on TNF‐α and IL‐6 production in LPS‐stimulated RAW264.7 macrophages for 24 h, measured by ELISA. (D and E) Compound 11, alongside CC‐99677 and PF‐3644022, suppressed MK2 pathway activation, validated through western blot analysis post‐LPS stimulation. Cells were preincubated with the specified compounds for 1 h prior to LPS stimulation (100 ng/mL, 30 min). (F) Distinguishes the mode of action between compound 11 and CC‐99677. The complex structure of a small molecule and MK2 (3R2Y) with the same parent nucleus as compound 11 is shown in cyans, and the complex structure of a small molecule and MK2 (3FYJ) with the same parent nucleus as CC‐99677 is shown in orange. (G–I) The effect of indicated inhibitor on Hsp27 phosphorylation following inhibitor washout. Cells were pretreated with indicated compounds for 1 h and then washed to remove free compound and incubated for a further indicated time before activation with LPS. In (A–C), LPS (100 ng/mL) served as the stimulation control, while untreated cells were the baseline control. The data represent as mean ± SD from triplicates, with statistical analysis conducted via one‐way analysis of variance (ANOVA) (^## p < 0.01, ^### p < 0.001 vs. stimulation control; ^***p < 0.001 vs. baseline control).
Furthermore, to validate the irreversible mechanism of action of compound 11 at the cellular level, we performed a cellular washout assay and assessed p‐Hsp27 levels. The established MK2 irreversible inhibitor CC‐99677 served as positive control, while the reversible ATP‐competitive inhibitor PF‐3644022 was used as negative control. […] In contrast, only 1 h after PF‐3644022 washout, p‐Hsp27 level was totally recovered (Figure 4I).
After the treatment outlined in the figure legends, cells were lysed using 1× sodium dodecyl sulfate (SDS) solution. The lysates were then subjected to SDS‐polyacrylamide gel electrophoresis for separation, followed by transferring onto nitrocellulose membranes. The membranes were incubated with primary antibodies specific to phospho‐MK2, phospho‐Hsp27, MK2, Hsp27, GAPDH, and β‐actin (Cell Signaling Technology), followed by horseradish peroxidase‐conjugated anti‐mouse or anti‐rabbit IgG secondary antibodies. Protein bands were detected using an enhanced chemiluminescence detection reagent (Thermo Fisher Scientific).

[2] = system: p-Hsp27 (Ser82) and p-MK2 (T334) in THP-1 derived macrophages; experiment: Western blot of MK2 signaling in LPS-stimulated THP-1 derived macrophages; format: cell-based, human; conditions: 1 h preincubation, LPS 100 ng/mL 30 min
Procedure: as §1
Next, the efficacy of compound 11 in cellular MK2 signaling inhibition was evaluated by examining both p‐MK2 and p‐Hsp27 at Ser82 levels, the latter being a direct downstream substrate of p‐MK2. […] We try to explore this interesting phenomenon by superimposing the complex crystal structure (3FYJ) that harboring the same skeleton as CC‐99677 (Figure 4F). […] In that way, CC‐99677 binding to MK2 kinase after pre‐incubation with cells and after LPS stimulation may cause the difference in the spatial conformation of MK2 kinase domain, which may make p38 cannot properly bind to MK2, resulting in a decrease in the phosphorylation of MK2.
After the treatment outlined in the figure legends, cells were lysed using 1× sodium dodecyl sulfate (SDS) solution. The lysates were then subjected to SDS‐polyacrylamide gel electrophoresis for separation, followed by transferring onto nitrocellulose membranes. […] Protein bands were detected using an enhanced chemiluminescence detection reagent (Thermo Fisher Scientific).

MK2 [3] = target: T1, MK2 (Homo sapiens, UniProt P49137); experiment: MK2 kinase inhibition assay (ADP-Glo); format: biochemical; conditions: for IC50: mean ± SD of two independent tests
T1 sequence (P49137 whole entry): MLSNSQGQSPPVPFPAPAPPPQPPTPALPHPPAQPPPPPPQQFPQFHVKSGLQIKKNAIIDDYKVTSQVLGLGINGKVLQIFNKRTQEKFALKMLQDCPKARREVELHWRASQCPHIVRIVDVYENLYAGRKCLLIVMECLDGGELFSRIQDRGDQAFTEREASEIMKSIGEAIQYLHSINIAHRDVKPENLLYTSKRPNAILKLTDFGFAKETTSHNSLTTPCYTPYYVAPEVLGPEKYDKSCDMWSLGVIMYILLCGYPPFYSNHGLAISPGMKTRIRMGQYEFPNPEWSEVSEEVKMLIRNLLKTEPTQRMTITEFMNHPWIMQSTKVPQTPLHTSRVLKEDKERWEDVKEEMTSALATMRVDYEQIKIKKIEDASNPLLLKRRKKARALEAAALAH
Procedure: To assess the impact of various compounds on MK2 kinase activity, we utilized the ADP‐Glo Assay Kit (Promega) following the manufacturer's instructions. Luminescence measurements were taken using a SpectraMax Paradigm reader. The inhibition percentage was calculated using the following formula: ((specific signalDMSO control − specific signal inhibitor)/(specific signalDMSO control)) × 100%. The IC50 values were determined employing dose–response curve fitting via Prism (Graph Pad).

MK2 [4] = target: T1, MK2; experiment: Kinase kinetic analysis of irreversible inhibition (Mobility Shift Assay, preincubation then 100-fold dilution); format: biochemical; conditions: preincubation at 100 times the IC50, monitored continuously
Source text: To assess its role as an irreversible MK2 kinase inhibitor, we conducted a kinetic study on compound 11. The well‐known reversible ATP‐competitive MK2 inhibitor, PF‐3644022, served as a negative control. […] The kinase‐inhibitor mixture was subsequently diluted by a factor of 100 with a reaction buffer that included both substrate peptide and ATP. Under these circumstances, the activity of MK2 kinase was continuously monitored by assessing the phosphorylated substrate percentage. […] The enzyme activity curve almost overlapped with the curve of background group, which included only the substrate peptide without inhibitors and MK2 kinase.
In the kinase kinetic analysis to elucidate the irreversible inhibition of MK2 by compound 11, a Mobility Shift Assay was conducted. […] The EZ Reader (Caliper Life Sciences, MA) was then used to assess the kinase activity of the mixture, which was monitored continuously for 1 hour.

SMILES	IC50 (MK2 [3]) [nM]	further results
Cc1cnc(-c2ccnc(C(C)(C)O)n2)cc1-n1c(C)cc(OCc2ncc(F)cc2F)c(Cl)c1=O [ATI-450]	–	potency for the p38α-MK2 complex relative to p38α-PRAK or p38α-ATF2 (p38α-MK2 complex): over 700 fold
Nc1ncnc2c1ncn2[C@@H]1O[C@H](COP(=O)(O)OP(=O)(O)OP(=O)(O)O)[C@@H](O)[C@H]1O [ATP]	–	ATP binding affinity to MK2 (MK2 [1]): approximately 30 µM
CCOCc1cnc(Cl)nc1Oc1ccc2c(ccc3sc4c(c32)NC[C@@H](C)NC4=O)n1 [CC-99677, reference compound]	–	time after inhibitor washout at which p-Hsp27 level recovered (p-Hsp27): 12 h; effect on MK2 phosphorylation at T334 site [2]: inhibited
Cc1ccc(-c2ccc3c(ccc4sc5c(c43)NC[C@@H](C)NC5=O)n2)cn1 [PF-3644022, reference compound]	12.3 ± 1.3	time after inhibitor washout at which p-Hsp27 level recovered (p-Hsp27): 1 h; effect on MK2 phosphorylation at T334 site [2]: inhibited; MK2 kinase activity after 30 min preincubation with inhibitor and 100-fold dilution (MK2 [4]): recovered gradually
C=CC(=O)Nc1cccc(-c2cc(-c3cc4c([nH]3)CCNC4=O)ccn2)c1 [compound 2]	728	–
CCC(=O)Nc1cccc(-c2cc(-c3cc4c([nH]3)CCNC4=O)ccn2)c1 [compound 3]	–	inhibition at 1 µM (MK2 [3]; read-out: inhibition of MK2 at 1 μM, 1 μM, inhibitory rate of two independent tests): ~30%
C=CC(=O)Nc1cc(C)cc(-c2cc(-c3cc4c([nH]3)CCNC4=O)ccn2)c1 [compound 6]	89.5 ± 15.3	–
C=CC(=O)Nc1cc(-c2cc(-c3cc4c([nH]3)CCNC4=O)ccn2)ccc1C [compound 7]	285 ± 97.5	–
C=CC(=O)Nc1cc(-c2cc(-c3cc4c([nH]3)CCNC4=O)ccn2)cc(C(F)(F)F)c1 [compound 8]	217 ± 4.8	–
C=CC(=O)Nc1cc(OC(F)(F)F)cc(-c2cc(-c3cc4c([nH]3)CCNC4=O)ccn2)c1 [compound 10]	212 ± 8.3	–

Second part, led by results:

IC50 (MK2 [3]) [nM]	SMILES	further results
452 ± 45.3	C=CC(=O)Nc1cc(OC)cc(-c2cc(-c3cc4c([nH]3)CCNC4=O)ccn2)c1 [compound 4]	–
36.9 ± 20.1	C=CC(=O)Nc1cc(-c2cc(-c3cc4c([nH]3)CCNC4=O)ccn2)ccc1OC [compound 5]	–
52.1 ± 0.3	C=CC(=O)Nc1cc(-c2cc(-c3cc4c([nH]3)CCNC4=O)ccn2)ccc1C(F)(F)F [compound 9]	–
121 ± 26.1	C=CC(=O)Nc1cc(-c2cc(-c3cc4c([nH]3)CCNC4=O)ccn2)cc(N(C)C)c1 [compound 12]	–
113 ± 3.5	C=CC(=O)Nc1cc(-c2cc(-c3cc4c([nH]3)CCNC4=O)ccn2)ccc1N(C)C [compound 13]	–
